From US10952436B2, “Microbiocidal quinoline (thio)carboxamide derivatives” (SYNGENTA PARTICIPATIONS AG, priority 2017, dated 2021) come the findings set out here.

For one data set, the system named is Sclerotinia sclerotiorum. Nature of the data set: Sclerotinia sclerotiorum/Liquid Culture (Cottony Rot). The following applies: read-out: control of Sclerotinia sclerotiorum.
Data set [1] concerns Botryotinia fuckeliana (Botrytis cinerea). Nature of the data set: Botryotinia fuckeliana (Botrytis cinerea)/Liquid Culture (Gray Mould). It is filed as cell-based. Particulars: read-out: control of Botryotinia fuckeliana.
For data set [2], the system named is Fusarium culmorum. Nature of the data set: whole plant or invertebrate. It is filed as in vivo. The following applies: in Triticum aestivum, read-out: control of Fusarium culmorum.
Data set [3] deals with Magnaporthe grisea (Pyricularia oryzae). In words: microbe, parasite or virus in culture. Format: cell-based. The following applies: read-out: control of Magnaporthe grisea.
The test system of a further data set is Gaeumannomyces graminis. Nature of the data set: Gaeumannomyces graminis/Liquid Culture (Take-all of Cereals). Format: cell-based. The following applies: read-out: control of Gaeumannomyces graminis.
Data set [4] relates to Glomerella lagenarium (Colletotrichum lagenarium). In words: Glomerella lagenarium (Colletotrichum lagenarium)/Liquid Culture (Anthracnose). Format: cell-based. Particulars: Colletotrichum orbiculare, read-out: control of Glomerella lagenarium.
Data set [5] concerns Fusarium culmorum. Nature of the data set: microbe, parasite or virus in culture. It is filed as cell-based. Particulars: read-out: control of Fusarium culmorum.
Data set [6] has as its system Monographella nivalis (Microdochium nivale). In words: Monographella nivalis (Microdochium nivale)/Liquid Culture (Foot Rot Cereals). It is filed as cell-based. The following applies: read-out: control of Monographella nivalis.
The test system of data set [7] is Magnaporthe grisea (Pyricularia oryzae). In words: whole plant or invertebrate. It is filed as in vivo. The following applies: foliar, read-out: control of Magnaporthe grisea.
Where [8] appears, read: 200 ppm, liquid culture, compared to untreated control, 3-4 days after application.
Setting [9] is: 200 ppm, liquid culture, compared to untreated control, 4-5 days after application.

Like-named read-outs stand apart in the source and are kept apart here. Bounds are passed on as bounds.

Experimental for Sclerotinia sclerotiorum: Mycelia fragments of a newly grown liquid culture of the fungus are directly mixed into nutrient broth (Vogels broth). After placing a (DMSO) solution of test compound into a microtiter plate (96-well format) the nutrient broth containing the fungal material is added. The test plates are incubated at 24° C. and the inhibition of growth is determined photometrically 3-4 days after application.

In general, melting point refers to the temperature, or range, at which the solid turns liquid. The molecule `C=C(C)CC(C)(Cc1ccccc1)C(=O)Nc1cnc2c(F)cccc2c1` (centres unmarked) [Compound E-74, 2-benzyl-N-(8-fluoro-3-quinolyl)-2,4-dimethyl-pent-4-enamide] had a melting point of 147 to 149 °C. For the same molecule, the inhibition of growth at 20 ppm in the data set on Sclerotinia sclerotiorum is ≥ 80%. In [1], the inhibition of growth at 200 ppm is ≥ 80%. In the data set on Fusarium culmorum [2], the pest or weed control at 200 ppm was ≥ 80%. Further, the inhibition of growth at 200 ppm in data set [3] was ≥ 80%. For the same molecule, in the data set on Gaeumannomyces graminis, the inhibition of growth at 200 ppm was ≥ 80%. Further, the inhibition of growth at 200 ppm in [4] is ≥ 80%. Also, the inhibition of growth at 200 ppm with Fusarium culmorum [5] was ≥ 80%. Also, in [6], the inhibition of growth at 200 ppm is ≥ 80%.
Molecule `CC(Cc1ccccc1)(CC1CC1)C(=O)Nc1cnc2c(F)cccc2c1` (centres unmarked) [Compound E-76, 2-benzyl-3-cyclopropyl-N-(8-fluoro-3-quinolyl)-2-methyl-propanamide] gave a melting point of 157 to 159 °C. Also, in [1] (setting [8]), the inhibition of growth at 200 ppm is ≥ 80%. Moreover, the inhibition of growth at 200 ppm in [3] is ≥ 80%. Also, the pest or weed control at 200 ppm in data set [7] was ≥ 80%. Besides, in the data set with Gaeumannomyces graminis (setting [9]), the inhibition of growth at 200 ppm was ≥ 80%. The inhibition of growth at 200 ppm in data set [4] (setting [8]) is ≥ 80%. Besides, the inhibition of growth at 200 ppm with Fusarium culmorum [5] was ≥ 80%. For the same molecule, the inhibition of growth at 200 ppm in data set [6] (setting [9]) was ≥ 80%.
With `CC(C)CC(C)(Cc1ccccc1)C(=O)Nc1cnc2c(F)cccc2c1` (centres unmarked) [Compound E-87, 2-benzyl-N-(8-fluoro-3-quinolyl)-2,4-dimethyl-pentanamide], the melting point was in the range of 140 to 142 °C. In the data set on Sclerotinia sclerotiorum, the inhibition of growth at 20 ppm is ≥ 80%. Further, the inhibition of growth at 200 ppm in [1] (setting [8]) was ≥ 80%. For the same molecule, the pest or weed control at 200 ppm with Fusarium culmorum [2] is ≥ 80%. For the same molecule, the inhibition of growth at 200 ppm in data set [3] was ≥ 80%. Moreover, in the data set with Gaeumannomyces graminis (setting [9]), the inhibition of growth at 200 ppm was ≥ 80%. Also, the inhibition of growth at 200 ppm in data set [4] (setting [8]) is ≥ 80%. The inhibition of growth at 200 ppm with Fusarium culmorum [5] is ≥ 80%. In addition, the inhibition of growth at 200 ppm in data set [6] (setting [9]) was ≥ 80%.
